Columns and labels:
Experiment in all cases: combination Emax (second highest fraction inhibited in the dose matrix, 72 h); higher = more inhibition; extreme values may be limits of the assay
[1] = system: COLO-680N (Esophageal Squamous Cell Carcinoma)
Summary of the method: (§1)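 Cell lines grown in DMEM/F12 or RPMI with 10% FBS were plated in 1536-well plates and held 24 hours at 37°C, 5% CO2 before 72 hours of exposure to two-drug dose matrices, with DMSO typically at 0.2%. CellTiter-Glo 2.0 luminescence gave viability, which was converted to inhibition. Vehicle wells were set to 0 and blank wells to 1. Combination Emax is the second-highest inhibition in the matrix, and Bliss excess is the observed combination effect minus the expected EA + EB − EA·EB, where EA and EB are the single-agent effects.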

[2] = system: L-1236 (Hodgkin's Lymphoma)
Summary of the method: as §1

[3] = system: MKN45 (Gastric Carcinoma)
Summary of the method: as §1

[4] = system: OPM-2 (Plasma Cell Myeloma)
Summary of the method: as §1

[5] = system: PC-3_[JPC-3] (Lung Adenocarcinoma)
Summary of the method: as §1

[6] = system: PSN1 (Pancreatic Carcinoma)
Summary of the method: as §1

[7] = system: REH (B-Lymphoblastic Leukemia)
Summary of the method: as §1

[8] = system: VAL (B-Cell Non-Hodgkin's Lymphoma)
Summary of the method: as §1

Compound | combination Emax [1] | combination Emax [2] | combination Emax [3] | combination Emax [4] | combination Emax [5] | combination Emax [6] | combination Emax [7] | combination Emax [8]
C=CCn1c(=O)c2cnc(Nc3ccc(N4CCN(C)CC4)cc3)nc2n1-c1cccc(C(C)(C)O)n1 [AZD1775] + CCc1c2c(nc3ccc(O)cc13)-c1cc3c(c(=O)n1C2)COC(=O)[C@]3(O)CC [SN-38] (first compound max 1 µM, partner max 0.3 µM) | 0.483 | 0.969 | 0.843 | 0.954 | 0.736 | 0.927 | 0.989 | 0.953
C=CCn1c(=O)c2cnc(Nc3ccc(N4CCN(C)CC4)cc3)nc2n1-c1cccc(C(C)(C)O)n1 [AZD1775] + Nc1ccn([C@@H]2O[C@H](CO)[C@@H](O)C2(F)F)c(=O)n1 [Gemcitabine] (first compound max 1 µM, partner max 0.3 µM) | 0.419 | 0.954 | 0.753 | 0.953 | 0.574 | 0.832 | 0.999 | 0.794
CN(CCO)CC[C@H](CSc1ccccc1)Nc1ccc(S(=O)(=O)NC(=O)c2ccc(N3CCC([C@@H](O)c4ccccc4-c4ccc(Cl)cc4)CC3)cc2)cc1S(=O)(=O)C(F)(F)F [AZD4320] + CC(=O)O[C@H]1C(=O)[C@@]2(C)[C@H]([C@H](OC(=O)c3ccccc3)[C@]3(O)C[C@H](OC(=O)[C@H](O)[C@@H](NC(=O)c4ccccc4)c4ccccc4)C(C)=C1C3(C)C)[C@]1(OC(C)=O)CO[C@@H]1C[C@@H]2O [Paclitaxel] (first compound max 1 µM, 7x7, partner max 3 µM) | 0.771 | 1 | 0.751 | 1 | 0.76 | 0.942 | 1 | 1
CN(CCO)CC[C@H](CSc1ccccc1)Nc1ccc(S(=O)(=O)NC(=O)c2ccc(N3CCC([C@@H](O)c4ccccc4-c4ccc(Cl)cc4)CC3)cc2)cc1S(=O)(=O)C(F)(F)F [AZD4320] + CS(=O)(=O)CCNCc1ccc(-c2ccc3ncnc(Nc4ccc(OCc5cccc(F)c5)c(Cl)c4)c3c2)o1 [Lapatinib] (first compound max 1 µM, 7x7, partner max 10 µM) | 0.481 | 1 | 0.2 | 0.938 | 0.912 | 0.267 | 1 | 1
CN(CCO)CC[C@H](CSc1ccccc1)Nc1ccc(S(=O)(=O)NC(=O)c2ccc(N3CCC([C@@H](O)c4ccccc4-c4ccc(Cl)cc4)CC3)cc2)cc1S(=O)(=O)C(F)(F)F [AZD4320] + Nc1ccn([C@@H]2O[C@H](CO)[C@@H](O)C2(F)F)c(=O)n1 [Gemcitabine] (first compound max 1 µM, 7x7, partner max 0.3 µM) | 0.3 | 1 | 0.582 | 0.628 | 0.675 | 0.885 | 1 | 1
Cc1c2c(nn1C)CSCc1cc(n(C)n1)CSc1cc(c3ccccc3c1)OCCCc1c(C(=O)O)n(C)c3c-2c(Cl)ccc13 [AZD5991] + CC(=O)O[C@H]1C(=O)[C@@]2(C)[C@H]([C@H](OC(=O)c3ccccc3)[C@]3(O)C[C@H](OC(=O)[C@H](O)[C@@H](NC(=O)c4ccccc4)c4ccccc4)C(C)=C1C3(C)C)[C@]1(OC(C)=O)CO[C@@H]1C[C@@H]2O [Paclitaxel] (first compound max 1 µM, 7x7, partner max 3 µM) | 0.476 | 0.846 | 0.709 | 1 | 0.58 | 0.746 | 1 | 0.765
Cc1c2c(nn1C)CSCc1cc(n(C)n1)CSc1cc(c3ccccc3c1)OCCCc1c(C(=O)O)n(C)c3c-2c(Cl)ccc13 [AZD5991] + CS(=O)(=O)CCNCc1ccc(-c2ccc3ncnc(Nc4ccc(OCc5cccc(F)c5)c(Cl)c4)c3c2)o1 [Lapatinib] (first compound max 1 µM, 7x7, partner max 10 µM) | 0.291 | 0.798 | 0.245 | 1 | 0.833 | 0.316 | 0.862 | 0.677
Cc1c2c(nn1C)CSCc1cc(n(C)n1)CSc1cc(c3ccccc3c1)OCCCc1c(C(=O)O)n(C)c3c-2c(Cl)ccc13 [AZD5991] + Nc1ccn([C@@H]2O[C@H](CO)[C@@H](O)C2(F)F)c(=O)n1 [Gemcitabine] (first compound max 1 µM, 7x7, partner max 0.3 µM) | 0.365 | 0.806 | 0.64 | 1 | 0.58 | 0.846 | 0.984 | 0.847

Source: the supplement of paper PMC11061612
